In ChEMBL document CHEMBL5120780, “Novel indazole skeleton derivatives containing 1,2,3-triazole as potential anti-prostate cancer drugs” (Bioorg Med Chem Lett, 2022):

Assays:
PC-3 [1] = experiment: Antiproliferative activity against human PC-3 cells assessed as inhibition of cell growth incubated for 72 hrs by MTT assay; type: functional, cell-based; details: PC-3, 72 h
HepG2 = experiment: Antiproliferative activity against human HepG2 cells assessed as inhibition of cell growth incubated for 72 hrs by MTT assay; type: functional, cell-based; details: HepG2, 72 h
MCF7 = experiment: Antiproliferative activity against human MCF7 cells assessed as inhibition of cell growth incubated for 72 hrs by MTT assay; type: functional, cell-based; details: MCF7, 72 h
MGC-803 = experiment: Antiproliferative activity against human MGC-803 cells assessed as inhibition of cell growth incubated for 72 hrs by MTT assay; type: functional, cell-based; details: MGC-803, 72 h
[2] = Selectivity ratio of IC50 for cytotoxicity against human WPMY-1 cells to IC50 for antiproliferative activity against human PC-3 cells; type: toxicity, cell-based; details: WPMY-1 cells and PC-3 cells, read-out: Ratio IC50
[3] = Cytotoxicity against human WPMY-1 cells assessed as inhibition of cell growth incubated for 72 hrs by MTT assay; type: toxicity, cell-based
[4] = Toxicity in wild type KM mouse assessed as animal survival at 2 g/Kg, IG measured for 2 weeks; details: in vivo, po, 2000 mg/kg, 336 h
PC-3 [5] = experiment: Induction of cell cycle arrest in human PC-3 cells assessed as accumulation of cells in G2/M phase at 8 uM incubated for 24 hrs by RNase/PI staining based flow cytometry analysis (reference value: 22.17%); type: functional
[6] = Toxicity in wild type KM mouse assessed as change in kidney morphology at 2 g/Kg, IG measured for 2 weeks by H and E staining based microscopic analysis; details: in vivo, po, 2000 mg/kg, 336 h
PC-3 [7] = experiment: Inhibition of colony formation in human PC-3 cells incubated for 7 days by crystal violet staining based analysis; type: functional, cell-based; details: dose 2-8 µM, time 7.0 day, DDE = dose-dependent effect
[8] = Toxicity in wild type KM mouse assessed as change in spleen morphology at 2 g/Kg, IG measured for 2 weeks by H and E staining based microscopic analysis; details: in vivo, po, 2000 mg/kg, 336 h
[9] = Toxicity in wild type KM mouse assessed as change in heart morphology at 2 g/Kg, IG measured for 2 weeks by H and E staining based microscopic analysis; type: tissue-based; details: in vivo, po, 2000 mg/kg, 336 h
[10] = Toxicity in wild type KM mouse assessed as change in lung morphology at 2 g/Kg, IG measured for 2 weeks by H and E staining based microscopic analysis; details: in vivo, po, 2000 mg/kg, 336 h
[11] = Toxicity in wild type KM mouse assessed as behavioral abnormalities at 2 g/Kg, IG measured for 2 weeks; details: in vivo, po, 2000 mg/kg, 336 h
[12] = Toxicity in wild type KM mouse assessed as change in prostate morphology at 2 g/Kg, IG measured for 2 weeks by H and E staining based microscopic analysis; details: in vivo, po, 2000 mg/kg, 336 h
[13] = Toxicity in wild type KM mouse assessed as change in liver morphology at 2 g/Kg, IG measured for 2 weeks by H and E staining based microscopic analysis; type: tissue-based; details: in vivo, po, 2000 mg/kg, 336 h

Row | SMILES | IC50 (PC-3 [1]) | IC50 (HepG2) | IC50 (MCF7) | IC50 (MGC-803) | further results
1 | CC(C)n1ncc2c(C(=O)Nc3ccccc3)cccc21 | 11.9 µM | 23.7 µM | 19.7 µM | 38.5 µM | –
2 | CC(C)n1ncc2c(C(=O)NCc3cn(-c4ccccc4F)nn3)cccc21 | > 40 µM | > 40 µM | > 40 µM | > 40 µM | –
3 | Cc1ccccc1-n1cc(CNC(=O)c2cccc3c2cnn3C(C)C)nn1 | 19.2 µM | > 40 µM | > 40 µM | > 40 µM | –
4 | CC(C)n1ncc2c(C(=O)NCCN3CCCC3)cccc21 | > 40 µM | > 40 µM | > 40 µM | > 40 µM | –
5 | COc1ccc(-n2cc(CNC(=O)c3cccc4c3cnn4C(C)C)nn2)cc1 | 34.3 µM | > 40 µM | > 40 µM | > 40 µM | –
6 | CC(C)n1ncc2c(C(=O)NCCN(C)C)cccc21 | > 40 µM | > 40 µM | > 40 µM | > 40 µM | –
7 | CC(C)n1ncc2c(C(=O)Nc3cccnc3)cccc21 | > 40 µM | > 40 µM | > 40 µM | > 40 µM | –
8 | CC(C)n1ncc2c(C(=O)NCc3cn(Cc4ccc(C(C)(C)C)cc4)nn3)cccc21 | 8.89 µM | > 40 µM | > 40 µM | > 40 µM | –
9 | CNC(=O)c1ccc(N2C(=S)N(c3ccc(C#N)c(C(F)(F)F)c3)C(=O)C2(C)C)cc1F [ENZALUTAMIDE] | 24.6 µM | – | – | – | selectivity ratio [2]: 2.49; IC50 at 72 h [3]: 61.4 µM
10 | CC(C)n1ncc2c(C(=O)NCCN3CCCCC3)cccc21 | > 40 µM | > 40 µM | > 40 µM | > 40 µM | –
11 | CCc1ccc(-n2cc(CNC(=O)c3cccc4c3cnn4C(C)C)nn2)cc1 | 26.6 µM | > 40 µM | > 40 µM | > 40 µM | –
12 | CC(C)n1ncc2c(C(=O)NCc3cn(-c4cccc(Br)c4)nn3)cccc21 | 33.7 µM | > 40 µM | > 40 µM | > 40 µM | –
13 | O=c1[nH]cc(F)c(=O)[nH]1 [FLUOROURACIL] | – | 11.7 µM | 15.1 µM | – | –
14 | CC(C)n1ncc2c(C(=O)NCc3cn(Cc4ccc(C(F)(F)F)cc4)nn3)cccc21 | 23.9 µM | > 40 µM | > 40 µM | > 40 µM | –
15 | CC(C)n1ncc2c(C(=O)NCc3cn(-c4ccc(F)cc4)nn3)cccc21 | > 40 µM | > 40 µM | > 40 µM | > 40 µM | –
16 | CC(C)n1ncc2c(C(=O)NCc3cn(-c4ccc(C(F)(F)F)cc4)nn3)cccc21 | 38.6 µM | > 40 µM | > 40 µM | > 40 µM | –
17 | CC(C)n1ncc2c(C(=O)NC3CCCC3)cccc21 | 19.4 µM | > 40 µM | > 40 µM | > 40 µM | –
18 | CC(C)n1ncc2c(C(=O)NCCN3CCN(C)CC3)cccc21 | > 40 µM | > 40 µM | > 40 µM | > 40 µM | –
19 | Cc1ccc(-n2cc(CNC(=O)c3cccc4c3cnn4C(C)C)nn2)cc1C | 23.4 µM | > 40 µM | > 40 µM | > 40 µM | –
20 | CC(C)n1ncc2c(C(=O)NCc3cn(Cc4ccc(C#N)cc4)nn3)cccc21 | 18.2 µM | > 40 µM | > 40 µM | 39.6 µM | –
21 | Cc1cccc(-n2cc(CNC(=O)c3cccc4c3cnn4C(C)C)nn2)c1 | 32.3 µM | > 40 µM | > 40 µM | > 40 µM | –
22 | COc1ccc(Cn2cc(CNC(=O)c3cccc4c3cnn4C(C)C)nn2)cc1 | 34 µM | > 40 µM | > 40 µM | > 40 µM | –
23 | CC(C)n1ncc2c(C(=O)NCc3cn(-c4ccc(I)cc4)nn3)cccc21 | > 40 µM | > 40 µM | > 40 µM | > 40 µM | –
24 | Cc1ccc(-n2cc(CNC(=O)c3cccc4c3cnn4C(C)C)nn2)cc1 | 39 µM | > 40 µM | > 40 µM | > 40 µM | –
25 | CC(C)n1ncc2c(C(=O)NCc3ccccc3)cccc21 | 15.2 µM | > 40 µM | > 40 µM | > 40 µM | –
26 | CC(C)n1ncc2c(C(=O)NCc3cn(-c4cccc(F)c4)nn3)cccc21 | 36.1 µM | > 40 µM | > 40 µM | > 40 µM | –
27 | CC(C)n1ncc2c(C(=O)NCc3cn(-c4ccccc4)nn3)cccc21 | 25.9 µM | > 40 µM | > 40 µM | > 40 µM | –
28 | CC(C)n1ncc2c(C(=O)NCc3cn(Cc4ccccc4)nn3)cccc21 | 4.42 µM | 13.7 µM | 9.17 µM | 14.3 µM | Activity [4]: Non-Toxic; selectivity ratio [2]: 4.42; Activity (PC-3 [5]): 72.25%; Activity [6]: Non-Toxic; IC50 at 72 h [3]: 20.3 µM; inhibition (PC-3 [7]): Dde; Activity [8]: Non-Toxic; Activity [9]: Non-Toxic; Activity [10]: Non-Toxic; Activity [11]: Non-Toxic; Activity [12]: Non-Toxic; Activity [13]: Non-Toxic
29 | CC(C)n1ncc2c(C(=O)NCc3cn(-c4ccc([N+](=O)[O-])cc4)nn3)cccc21 | > 40 µM | > 40 µM | > 40 µM | > 40 µM | –
30 | Cc1ccc(-n2cc(CNC(=O)c3cccc4c3cnn4C(C)C)nn2)c(C)c1 | 10.6 µM | > 40 µM | > 40 µM | > 40 µM | –
